Results taken from patent publication US6310273A, “Inhibiting apoptosis in plants using a baculovirus p35 protease inhibitor gene” (The Regents of the University of California, priority 1999, dated 2001).
Peptide text beside a SMILES is read from it.

Assays:
[1] = tested on: Pseudomonas syringae pv. angulata in tobacco leaves; assay: Leaf infiltration of bacteria with peptide inhibitor, cell death; type: in vivo; details: compatible interaction; inhibitor syringe-infiltrated with bacteria into leaf
Description: (§1) A leaf of the susceptible plant of interest is syringe or vacuum infiltrated with a concentration of virulent bacteria sufficient to cause disease and tissue death. A portion of the same leaf or another leaf on the same plant of similar position and age is infiltrated with bacteria and the tetrapeptide inhibitor. Usually a 0.5 mM concentration of inhibitor is sufficient to inhibit disease but may vary according to pathogen and host plant. Disease is permitted to develop under conditions suitable for the plant/pathogen combination. Symptoms are viewed over the course of the experiment to assess the level of symptom (death) inhibition by the caspase inhibitor compared to the control. The affect of the caspase inhibitor on bacterial growth can be assayed by taking samples of the tissue and performing growth curves of the pathogen as described in the literature.
(§2) Host plant leaves are infiltrated with bacteria at a suitable concentration (10^4 -10^8 colony forming units per ml) to cause disease. Leaves of the same age and position on the same or a different plant are infiltrated with bacteria of the same concentration with the desired peptide inhibitor added. All solutions are infiltrated directly into the plant leaf lamina with a syringe. Disease symptoms in the form of dead areas of cells are quantified by time lapse color image capture and lesion area measurements determined by digital image analysis. Samples of the control tissue and inhibitor treated tissues are analyzed on a time course basis for bacterial growth rate.
(§3) Pathogen growth is measured by grinding leaf disc samples in a suitable buffer followed by serial dilutions and plating of samples onto agar plates to determine the relative number of colonies produced. Colony counts are then related back to the original undiluted samples. Growth values are reported as means of several samples with appropriate statistical measures of mean separation. Differential effects of the inhibitors thus are measured both in terms of the amount of apoptotic cell death induced (symptoms) and by the effect of altering cell death induction on the amount of pathogen growth in the tissue.

[2] = tested on: Pseudomonas syringae pv. phaseolicola in bean leaves; assay: as above; type: in vivo; details: compatible interaction; inhibitor syringe-infiltrated with bacteria into leaf
Description: as §1, §2, §3

[3] = tested on: Pseudomonas syringae pv. syringae in tomato leaves; assay: as above; type: in vivo; details: compatible interaction; inhibitor syringe-infiltrated with bacteria into leaf
Description: as §1, §2, §3

[4] = tested on: Pseudomonas syringae pv. tabaci in tobacco leaves; assay: as above; type: in vivo; details: compatible interaction; inhibitor syringe-infiltrated with bacteria into leaf
Description: as §1, §2, §3

[5] = tested on: Pseudomonas syringae pv. tomato in tomato leaves; assay: as above; type: in vivo; details: compatible interaction; inhibitor syringe-infiltrated with bacteria into leaf
Description: as §1, §2, §3

[6] = tested on: Xanthamonas campestris pv tomato in tomato leaves; assay: as above; type: in vivo; details: compatible interaction; inhibitor syringe-infiltrated with bacteria into leaf
Description: as §1, §2, §3

[7] = tested on: Pseudomonas syringae pv. phaseolicola in tobacco leaves; assay: as above; type: in vivo; details: incompatible interaction (non-host hypersensitive response); inhibitor syringe-infiltrated with bacteria into leaf
[8] = tested on: Pseudomonas syringae pv. tomato (avrPto) in tomato (Pto/Pto) leaves; assay: as above; type: in vivo; details: incompatible interaction (host specific gene for gene hypersensitive response); inhibitor syringe-infiltrated with bacteria into leaf
[9] = molecular target: T1, caspase-3 (CPP32, apopain, Yama) (Homo sapiens, UniProt P42574); details: 0.1 uM inhibitor; 100 ul reaction, 30 units caspase-3, 0.2 mM DEVD-p-nitroanilide; cited from earlier work
T1 construct: purchased BIOMOL Research Laboratories, Inc. AK-700
T1 sequence (P42574 29-175 limits assumed): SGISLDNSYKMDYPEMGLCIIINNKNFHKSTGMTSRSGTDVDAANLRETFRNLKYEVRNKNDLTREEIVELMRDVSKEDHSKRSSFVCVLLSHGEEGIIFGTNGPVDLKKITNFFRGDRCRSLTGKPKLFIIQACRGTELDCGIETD
T1 sequence (P42574 176-277 limits assumed): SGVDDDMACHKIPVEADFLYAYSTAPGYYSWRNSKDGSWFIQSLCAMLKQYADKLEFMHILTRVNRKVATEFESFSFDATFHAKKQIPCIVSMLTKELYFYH

bean = assay: Blocking of apoptotic death or disease in bean; type: in vivo
tobacco = assay: Blocking of apoptotic death or disease in tobacco; type: in vivo

Compound	blocking of cell death [4]	blocking of cell death [5]	blocking of cell death [7]	blocking of cell death [8]	further results
CC(=O)N[C@@H](CC(=O)O)C(=O)N[C@@H](CCC(=O)O)C(=O)N[C@H](C(=O)N[C@H](C=O)CC(=O)O)C(C)C [Ac-DEVD-CHO]	blocks cell death	blocks cell death	blocks cell death	blocks cell death	blocking of cell death [1]: blocks cell death; blocking of cell death [2]: blocks cell death; blocking of cell death [3]: blocks cell death; blocking of cell death [6]: blocks cell death; blocking of caspase-3 activity [9]: completely blocked
CSCC[C@H](NC(=O)[C@H](CC(=O)O)NC(C)=O)C(=O)N[C@@H](CCC(N)=O)C(=O)N[C@H](C=O)CC(=O)O [Ac-DMQD-CHO] (Ac-DMQD-aldehyde)	blocks cell death	blocks cell death	blocks cell death		
CC(=O)N[C@@H](Cc1ccc(O)cc1)C(=O)N[C@H](C(=O)N[C@@H](C)C(=O)N[C@H](C=O)CC(=O)O)C(C)C [Ac-YVAD-CHO]	blocks cell death but less well than others	blocks cell death but less well than others	blocks cell death but less well than others		
CC(=O)N[C@@H](CC(C)C)C(=O)N[C@@H](CC(C)C)C(=O)N[C@H](C=O)CCCNC(=N)N [leupeptin]					blocking apoptotic death or disease (bean): not effective; blocking apoptotic death or disease (tobacco): not effective
Ac-DQMD-aldehyde				blocks cell death	
Ac-Leu-Arg-Arg-aldehyde	does not block cell death				
